Laboratory results from patent US6441042B1 (dated 2002).

melting point [°C]	Compound
165 to 166	CCCC[C@H](CC(=O)NO)C(=O)N[C@H](C(=O)N(C)C)C(C)(C)C
200	CCC[C@H](CC(=O)NO)C(=O)N[C@H](C(=O)NC)C(C)(C)C
